# Measured values from publication PMC9694711, “Synthesis of Paclitaxel Derivatives for Remote Loading into Liposomes and Improved Therapeutic Effect” (Molecules, 2022).
# Columns and labels:
# [1] = tested on: breast cancer cell line 4T1; test: MTT assay, cytotoxicity on 4T1; type: cell-based, mouse; conditions: for GI50: Mus musculus, MTT, 72 h, mean of two independent determinations; for TI (LO2/4T1): therapeutic index, GI50 LO2 / GI50 4T1
# Procedure: (§1) MTT assay was applied to verify the rationality of the molecular combination strategy. The cytotoxicity of the compounds was evaluated on lung cancer cell line A549, colon cancer cell line HCT-116, breast cancer cell line 4T1 and normal hepatocyte cell line LO2. Paclitaxel was used as a positive drug. […] The therapeutic index (TI) for LO2/HCT-116, LO2/A549 and LO2/4T1 of active compounds 4a, 4d, 13a, 17a, 17c and paclitaxel are shown in Table 2.
# (§2) Cells were inoculated in 96-well plates (cell density 2 × 10^4 cells/well) followed by incubation for 24 h at 37 °C. Paclitaxel and target compounds were added to the corresponding well. Subsequently, the cultures were incubated for 72 h. After the MTT solution (50 µL, 2 mg/mL) was added to cultures, the plates were incubated for an additional 4 h. Purple colored formazan crystals were dissolved in 200 µL DMSO, and the absorbance was recorded at 570 nm using Synergy HT, Bio-Tek (Winooski, VT, USA).
# [2] = Liposome loading with copper ion gradients (encapsulation efficiency by HPLC); type: physicochemical; conditions: copper ion gradient
# Source text: Vyxeos® is a liposomal formulation of a fixed molar ratio (1:5) combination of the antineoplastic drugs daunorubicin (DN) and cytarabine (Cyt). Daunorubicin is subsequently actively encapsulated with high efficiency through complexation with intra-liposomal copper. The copper gluconate buffer forms a complex with daunorubicin at a ratio of 1:1 to 1:2 [25]. Referring to Vyxeos®, copper ion was selected as a complexed metal ion in the inner phase. […] Therefore, compound 4d was selected to investigate the effect of the anions on the loading efficiency. Among them, only the neutral gluconate copper was a suitable inner phase to facilitate the encapsulation of compound 4d (Table 3).
# (§3) The reason for the stability of the neutral formulations was potentially due to the fact that PBA was effectively […] and interacted with copper more tightly in the neutral condition compared with the acidic condition. Thus, the neutral Cu-gluconate was selected as the inner phase. The concentration of copper ions was also investigated, showing that the higher the copper concentration, the higher the EE. Considering the safety of copper ions, 300 mM was chosen. […] The EE of compound 4d active loading liposome was more than 95% with copper ion gradient. Furthermore, we also evaluated the ATP and saccharides as remote gradients with the optimal formulation of copper ion gradients.
# (§4) Blank liposomes were prepared for membrane hydration. HSPC, chol and DSPE-PEG2000 were dissolved using chloroform at a mass ratio of 3:1:0.02 and then spin-evaporated at 37 °C. The obtained film was then hydrated with 300 mM Cu-Glu (pH 7.4) at 65 °C for 30 min. The multi-layer vesicles were subsequently put into an extruder and passed through polycarbonate membranes with pore sizes of 400 nm, 200 nm and 100 nm 12 times at 65 °C containing 20 mM HEPES, 15 mM EDTA and 300 mM sucrose for removing the un-encapsulated Cu^2+, and then EDTA was removed with 20 mM HEPES and 300 mM sucrose buffer (pH 7.4, adjusted with triethylamine). Compound 4d was dissolved in DMSO and slowly added into the liposome at 65 °C for 30 min and then quenched in an ice bath for 5 min (the drug to lipid ratio was 1:10). The encapsulation efficiency and drug loading efficiency of compound 4d were determined using HPLC. The morphologies of liposomes were characterized using a transition electron microscope (TEM, Hitachi HT7700, Tokyo, Japan); then, their size, PDI and Zeta potential were measured using a Zetasizer Nano ZS90 (Malvern, UK).
# [3] = Liposome loading with calcium acetate gradients; type: physicochemical; conditions: sediment precipitated after loading
# Source text: Since boronic acid RB(OH)2 is not only a weak acid, but also a structure that can complex with copper ions, ATP and saccharides, we investigated whether different inner phases could be employed to encapsulate compounds (4a, 4d, 13a, 17a, 17c) with good therapeutic index.
# [4] = tested on: colon cancer cell line HCT-116; test: MTT assay, cytotoxicity on HCT-116; type: cell-based, human; conditions: for GI50: Homo sapiens, HCT-116, MTT, 72 h, mean of two independent determinations; for TI (LO2/HCT-116): therapeutic index, GI50 LO2 / GI50 HCT-116
# Procedure: as §1, §2
# [5] = tested on: lung cancer cell line A549; test: MTT assay, cytotoxicity on A549; type: cell-based, human; conditions: for GI50: Homo sapiens, A549, MTT, 72 h, mean of two independent determinations; for TI (LO2/A549): therapeutic index, GI50 LO2 / GI50 A549
# Procedure: as §1, §2
# [6] = tested on: normal hepatocyte cell line LO2; test: MTT assay, cytotoxicity on normal cell LO2; type: cell-based; conditions: Hepatocyte; MTT, 72 h; mean of two independent determinations
# Procedure: as §1, §2
# [7] = Characterisation of compound 4d liposome (size, PDI, zeta potential, loading, storage stability); type: physicochemical; conditions: optimal formulation, drug to lipid ratio 1:10
# Procedure: The morphology of compound 4d liposome is shown in Figure 3 and Figure 4, with spherical particles, a narrow size distribution at ~110 nm and zeta potential at ~−15 mV (Table S2).
# as §4
# [8] = Liposome loading with ATP and saccharides gradients; type: physicochemical; conditions: gradient ATP
# Procedure: as §3
# Thus, the copper ion gradient was chosen for further experiments.
# Blank liposomes were prepared for membrane hydration. HSPC, chol and DSPE-PEG2000 were dissolved using chloroform at a mass ratio of 3:1:0.02 and then spin-evaporated at 37 °C. The obtained film was then hydrated with 300 mM Cu-Glu (pH 7.4) at 65 °C for 30 min. […] The encapsulation efficiency and drug loading efficiency of compound 4d were determined using HPLC. The morphologies of liposomes were characterized using a transition electron microscope (TEM, Hitachi HT7700, Tokyo, Japan); then, their size, PDI and Zeta potential were measured using a Zetasizer Nano ZS90 (Malvern, UK).
# [9] = tested on: 4T1 xenograft tumor; test: In vivo antitumor efficacy and toxicity, 4T1 tumor model; conditions: 8 mg/kg, 4 times; mice bearing 4T1 tumor
# Procedure: A549 and HCT-116 cells are human tumor cells, while 4T1 cells are mouse tumor cells. Based on the availability of the tumor model, mice bearing a 4T1 xenograft tumor were used to study the in vivo antitumor efficacy of the compound 4d liposome. As depicted in Figure 6a, there was difference between compound 4d (8 mg/kg) and the paclitaxel control group (8 mg/kg).
# The antitumor effect was evaluated by the nude mice armpit tumor model bearing breast cancer 4T1 cells. When the average tumor volume reached 100 mm^3, the treatment was initiated at a 3-day interval for 12 days. The mice were randomly divided into five groups (n = 5 per group) receiving different palictaxel at 8 mg/kg as follows: saline (the control group), taxol, compound 4d, compound 4d liposome, high dose 4d liposome (3 times the dose, immediately 24 mg/kg). Tumor volume (V = length × width^2/2) and body weight were recorded. At the end of the experiment, mice were sacrificed. The obtained tumors were accurately weighed to calculate the tumor burden (Wtumor/Wbody) and tumor inhibition rate [TIR= (Wcontrol tumor − Wsample tumor)/Wcontrol tumor].
structure (smiles),measurement,setting,value
"CC(=O)OC1C(=O)C2(C)C(O)CC3OCC3(OC(C)=O)C2C(OC(=O)c2ccccc2)C2(O)CC(OC(=O)C(OC(=O)CCC(=O)OCc3ccc(B(O)O)cc3)C(NC(=O)c3ccccc3)c3ccccc3)C(C)=C1C2(C)C (stereo not shown) [Compound 4a, 2’-O-[4-((4-boronobenzyl)oxy)-4-oxobutyryl]taxol]","inhibition % at fixed concentration, 4T1 (printed in GI50 column)",[1]; @100 nM,20.85%@100 nM
same,"loading into liposomes, copper ion as complexed metal ion in the inner phase",[2],failed in loading into the liposomes
same,encapsulation into liposomes by calcium acetate gradients,[3],not feasible
same,GI50,[4],73.7 nM
same,TI (LO2/HCT-116),[4],25.4
same,GI50,[5],68.5 nM
same,TI (LO2/A549),[5],27.4
same,GI50,[6],1880 nM
"CC(=O)OC1C(=O)C2(C)C(O)CC3OCC3(OC(C)=O)C2C(OC(=O)c2ccccc2)C2(O)CC(OC(=O)C(OC(=O)CSSCC(=O)OCc3ccc(B(O)O)cc3)C(NC(=O)c3ccccc3)c3ccccc3)C(C)=C1C2(C)C (stereo not shown) [Compound 4d, 2’-O-[2-((2-((4-boronobenzyl)oxy)-2-oxoethyl)disulfaneyl)acetyl]taxol]",GI50,[1],69.8 nM
same,TI (LO2/4T1),[1],9.2
same,Loading efficiency (%),[7],9.02%
same,"Encapsulated efficiency, optimal formulation",[2]; drug-to-lipid ratio of 0.1 w/w (1:10),> 95%
same,encapsulation into liposomes by calcium acetate gradients,[3],not feasible
same,GI50,[4],13 nM
same,TI (LO2/HCT-116),[4],49.1
same,loading with inner phase of ATP,[8],not successful
same,GI50,[5],13.9 nM
same,TI (LO2/A549),[5],45.9
same,GI50,[6],639 nM
"CC(=O)OC1C(=O)C2(C)C(O)CC3OCC3(OC(C)=O)C2C(OC(=O)c2ccccc2)C2(O)CC(OC(=O)C(OC(=O)OCc3ccc(B(O)O)cc3)C(NC(=O)c3ccccc3)c3ccccc3)C(C)=C1C2(C)C (stereo not shown) [Compound 13a, 2’-O-[4-boronobenzyl carbonate]taxol]",GI50,[1],92.9 nM
same,TI (LO2/4T1),[1],10.5
same,"loading into liposomes, copper ion as complexed metal ion in the inner phase",[2],failed in loading into the liposomes
same,encapsulation into liposomes by calcium acetate gradients,[3],not feasible
same,GI50,[4],8.73 nM
same,TI (LO2/HCT-116),[4],111.3
same,GI50,[5],22.5 nM
same,TI (LO2/A549),[5],43.3
same,GI50,[6],972 nM
"CC(=O)OC1C(=O)C2(C)C(O)CC3OCC3(OC(C)=O)C2C(OC(=O)c2ccccc2)C2(O)CC(OC(=O)C(OC(=O)CCB(O)O)C(NC(=O)c3ccccc3)c3ccccc3)C(C)=C1C2(C)C (stereo not shown) [Compound 17a, 2’-O-[3-boronopropanoyl]taxol]",GI50,[1],68.1 nM
same,TI (LO2/4T1),[1],10.5
same,"loading into liposomes, copper ion as complexed metal ion in the inner phase",[2],failed in loading into the liposomes
same,encapsulation into liposomes by calcium acetate gradients,[3],not feasible
same,GI50,[4],7.98 nM
same,TI (LO2/HCT-116),[4],89.5
same,GI50,[5],21.8 nM
same,TI (LO2/A549),[5],32.7
same,GI50,[6],715 nM
"CC(=O)OC1C(=O)C2(C)C(O)CC3OCC3(OC(C)=O)C2C(OC(=O)c2ccccc2)C2(O)CC(OC(=O)C(OC(=O)CCCCB(O)O)C(NC(=O)c3ccccc3)c3ccccc3)C(C)=C1C2(C)C (stereo not shown) [Compound 17c, 2’-O-[5-boronopentanoyl]taxol]",GI50,[1],87.2 nM
same,TI (LO2/4T1),[1],16.3
same,"loading into liposomes, copper ion as complexed metal ion in the inner phase",[2],failed in loading into the liposomes
same,encapsulation into liposomes by calcium acetate gradients,[3],not feasible
same,GI50,[4],6.38 nM
same,TI (LO2/HCT-116),[4],222.1
same,GI50,[5],44.8 nM
same,TI (LO2/A549),[5],31.6
same,GI50,[6],1420 nM
CC(=O)O[C@H]1C(=O)[C@@]2(C)[C@H]([C@H](OC(=O)c3ccccc3)[C@]3(O)C[C@H](OC(=O)[C@H](O)[C@@H](NC(=O)c4ccccc4)c4ccccc4)C(C)=C1C3(C)C)[C@]1(OC(C)=O)CO[C@@H]1C[C@@H]2O [paclitaxel],GI50,[1],25.3 nM
same,TI (LO2/4T1),[1],2.7
same,"inhibition % at fixed concentration, HCT-116 (printed in GI50 column)",[4]; @6.25 nM,81.86%@6.25 nM
same,"inhibition % at fixed concentration, A549 (printed in GI50 column)",[5]; @6.25 nM,64.96%@6.25 nM
same,GI50,[6],69.1 nM
same,tumor inhibition rate,[9],58.5%
